Test results published in ChEMBL document CHEMBL1201862, “PubChem BioAssay data set” (2004).
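Compound exposure: 48 hours, 5 concentrations, 96-well plates. GI50 = concentration required for 50% inhibition of growth.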 The source made the active and inactive calls. Cut-off read from the data, not from the text of the source: active = GI50 up to about 1.1 µM and inactive = higher.

What was measured:
Assay in all cases: NCI anticancer screen, dose series, 48 h
A549 = tested on: A549
ACHN = tested on: ACHN
COLO 205 = tested on: COLO 205
HCC 2998 = tested on: HCC 2998
HOP-62 = tested on: HOP-62
HT-29 = tested on: HT-29
IGROV-1 = tested on: IGROV-1
K562 = tested on: K562
NCI-H522 = tested on: NCI-H522
OVCAR-3 = tested on: OVCAR-3
OVCAR-8 = tested on: OVCAR-8
SK-MEL-5 = tested on: SK-MEL-5
SNB-19 = tested on: SNB-19
SNB-75 = tested on: SNB-75
SW-620 = tested on: SW-620
TK-10 = tested on: TK-10
UACC-257 = tested on: UACC-257
HL-60 = tested on: HL-60

Measured: GI50

O=C(N/C(=C\c1ccc(/C=C(\NC(=O)c2ccccc2)c2nc3cc([N+](=O)[O-])ccc3[nH]2)cc1)c1nc2cc([N+](=O)[O-])ccc2[nH]1)c1ccccc1
inactive: A549 31 µM | ACHN 23.2 µM | COLO 205 29.8 µM | HCC 2998 27.1 µM | HOP-62 > 100 µM | HT-29 30.3 µM | IGROV-1 82.8 µM | K562 18.3 µM | NCI-H522 11.4 µM | OVCAR-3 39.6 µM | OVCAR-8 34.9 µM | SK-MEL-5 22.2 µM | SNB-19 > 100 µM | SNB-75 68.5 µM | SW-620 55.7 µM | TK-10 32.1 µM | UACC-257 47.8 µM

O=C1CCC2(c3ccccc3)Nc3ccc(Cl)cc3N12 (stereo not drawn)
inactive: A549 > 100 µM | ACHN > 100 µM | COLO 205 > 100 µM | HCC 2998 > 100 µM | HL-60 > 100 µM | HOP-62 > 100 µM | HT-29 > 100 µM | IGROV-1 > 100 µM | K562 77.8 µM | NCI-H522 > 100 µM | OVCAR-3 > 100 µM | OVCAR-8 > 100 µM | SK-MEL-5 > 100 µM | SNB-75 37.7 µM | SW-620 > 100 µM | TK-10 > 100 µM | UACC-257 > 100 µM

CSc1nsc(-c2ccccc2)[s+]1.[O-][Cl+3]([O-])([O-])[O-]
inactive: A549 > 100 µM | ACHN > 100 µM | COLO 205 > 100 µM | HCC 2998 > 100 µM | HL-60 72.1 µM | HOP-62 > 100 µM | IGROV-1 > 100 µM | K562 64.1 µM | NCI-H522 > 100 µM | OVCAR-3 > 100 µM | OVCAR-8 > 100 µM | SK-MEL-5 > 100 µM | SNB-19 > 100 µM | SNB-75 > 100 µM | SW-620 > 100 µM | TK-10 > 100 µM | UACC-257 > 100 µM

C=C(C)C(=O)OC1CCC2(C)C(CCC3C2CCC2(C)C(c4ccc(=O)oc4)CC4OC432)C1 (stereo not drawn)
active: HL-60 0.57 µM
inactive: A549 2.31 µM | COLO 205 8.18 µM | HCC 2998 5.19 µM | HOP-62 3.31 µM | HT-29 7.94 µM | IGROV-1 6.75 µM | K562 2.69 µM | NCI-H522 2.95 µM | OVCAR-3 4.57 µM | OVCAR-8 5.51 µM | SK-MEL-5 3.8 µM | SNB-19 18.5 µM | SNB-75 7.38 µM | SW-620 6.34 µM | UACC-257 2.96 µM

O=C(N/C(=C\c1cc(Cl)ccc1Cl)c1nc2c(O)nc(S)nc2[nH]1)c1ccccc1
inactive: A549 98.6 µM | ACHN 37.1 µM | COLO 205 37.4 µM | HCC 2998 16.4 µM | HL-60 4.82 µM | HOP-62 > 100 µM | HT-29 20.8 µM | IGROV-1 > 42.4 µM | K562 7.43 µM | NCI-H522 38 µM | OVCAR-3 43.5 µM | OVCAR-8 25.7 µM | SK-MEL-5 47 µM | SNB-19 > 55.2 µM | SNB-75 34.2 µM | SW-620 13.7 µM | TK-10 > 75.3 µM

CCOc1ccc(NC(=O)C(=O)CC(=O)c2sc(NNC(C)=O)nc2C)cc1
inactive: A549 > 100 µM | ACHN > 100 µM | COLO 205 > 100 µM | HCC 2998 > 100 µM | HL-60 > 100 µM | HOP-62 > 100 µM | HT-29 > 100 µM | IGROV-1 > 100 µM | K562 > 100 µM | NCI-H522 > 100 µM | OVCAR-8 > 100 µM | SK-MEL-5 > 100 µM | SNB-19 > 100 µM | SNB-75 > 100 µM | SW-620 > 100 µM | TK-10 > 100 µM | UACC-257 > 100 µM

O=C(Cc1nc2ccc([N+](=O)[O-])cc2nc1O)C(=O)Nc1ccccc1[N+](=O)[O-]
inactive: A549 > 100 µM | ACHN > 100 µM | COLO 205 > 100 µM | HCC 2998 > 100 µM | HL-60 > 100 µM | HT-29 > 100 µM | IGROV-1 > 100 µM | K562 > 100 µM | NCI-H522 20.3 µM | OVCAR-3 > 100 µM | SK-MEL-5 > 100 µM | SNB-19 > 100 µM | SNB-75 > 100 µM | SW-620 > 100 µM | TK-10 > 100 µM | UACC-257 > 100 µM

Cc1c(C(=O)/C=C/c2ccccc2[N+](=O)[O-])[n+]([O-])c2ccccc2[n+]1[O-]
inactive: A549 12.5 µM | ACHN 10.6 µM | COLO 205 3.13 µM | HL-60 1.58 µM | HOP-62 18.2 µM | HT-29 8.57 µM | IGROV-1 10.6 µM | K562 3.39 µM | NCI-H522 3.94 µM | OVCAR-3 3.76 µM | OVCAR-8 3.9 µM | SK-MEL-5 12 µM | SNB-19 19.1 µM | SNB-75 13.2 µM | SW-620 5.13 µM | UACC-257 7.53 µM
